Measurements published in doi:10.1101/2022.02.10.480023v1 (biorxiv, 2022).

Molecular target: T1, AbDHDPS (Acinetobacter baumannii, UniProt D0CFC3)
T1 sequence (D0CFC3 1-297): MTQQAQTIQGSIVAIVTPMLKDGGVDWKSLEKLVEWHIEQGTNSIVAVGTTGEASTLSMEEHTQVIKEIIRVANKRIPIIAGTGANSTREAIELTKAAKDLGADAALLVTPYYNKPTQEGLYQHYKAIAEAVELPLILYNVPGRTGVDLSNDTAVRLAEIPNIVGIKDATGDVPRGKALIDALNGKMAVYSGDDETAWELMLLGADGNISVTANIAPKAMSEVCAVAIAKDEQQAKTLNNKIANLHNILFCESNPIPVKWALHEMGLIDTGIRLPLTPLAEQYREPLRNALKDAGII
Assay: DHDPS-DHDPR coupled assay, NADPH oxidation at […] nm
Assay type: biochemical

IC50: 35 µM
SMILES: CS(=O)(=O)NNc1ccccc1 [N’-phenylmethanesulfonohydrazide]
